{
  "source": "patent US20040072770A1",
  "about": "“Methods for specifically inhibiting histone deacetylase-7 and 8” (priority 2002, published 2004)",
  "key": {"A549 cells": {"tested_on": "A549 cells", "assay": "Growth inhibition by antisense oligos, A549", "format": "cell-based, human", "settings": "50 nM, 48 hour, vs cells treated with lipofectin", "experimental": "(§1) For all ex vivo oligo treatment, human A549 human […] carcinoma cells were seeded in 10 cm tissue culture dishes one day prior to oligonucleotide treatment. The cell lines were obtained from the American Type Culture Collection (ATCC) (Manassas, Va.) and were grown under the recommended culture conditions. Before the addition of the oligonucleotides, cells were washed with PBS (phosphate buffered saline). Next, lipofectin transfection reagent (GIBCO BRL Mississauga, Ontario, Calif.), at a concentration of 6.25 μg/ ml, was added to serum free OPTIMEM medium (GIBCO BRL, Rockville, Md.), which was then added to the cells. The oligonucleotides were added directly to the cells (i.e., one oligonucleotide per plate of cells). Mismatched oligonucleotides were used as controls. The same concentration of oligonucleotide (e.g., 50 nM) was used per plate of cells for each oligonucleotide tested.\n(§2) In order to determine the effect of HDAC ODNs on cell growth inhibition and cell death through apoptosis, A549, T24, DuI45, HCT116 cells (ATCC, Manassas, Va.), or HMEC cells (BioWhittaker, Walkersville, Md.) were treated with HDAC ODNs as previously described.\n(§3) For the cell growth inhibition analysis, human cancer or normal cells were treated with 50 nM of paired AS or MM oligos directed against human HDAC-1, HDAC-7 or HDAC-8for up to 96 hours. Cell numbers were counted every day by trypan blue exclusion. Percentage of inhibition was calculated as (100 - AS cell numbers/control cell numbers)%."}, "Du145 cells": {"tested_on": "Du145 cells", "assay": "Growth inhibition by antisense oligos, Du145", "format": "cell-based, human", "settings": "50 nM, 48 hour, vs cells treated with lipofectin", "experimental": "as §1, §2, §3"}, "human HDAC-7 mRNA": {"tested_on": "human HDAC-7 mRNA", "assay": "HDAC-7 mRNA expression in A549 cells, Northern blot", "format": "cell-based", "settings": "for HDAC-7 RNA expression, initial screen: 100 nM; for HDAC-7 RNA expression, initial screen / HDAC-7 mRNA expression, dose response (FIG. 1): 24 hours; for HDAC-7 mRNA expression, dose response (FIG. 1): 25 or 50 nM", "experimental": "(§4) To identify antisense oligodeoxynucleotide (ODN) capable of inhibiting HDAC-7 expression in human cancer cells, eighteen phosphorothioate ODNs containing sequences complementary to the 5′ or 3′ UTR of the human […] (GenBank Accession No. AF239243) were initially screened in A549 cells at 100 nM. Cells were harvested after 24 hours of treatment, and HDAC-7 RNA expression was analyzed by Northern blot analysis. […] Total RNAs were harvested and were analyzed by Northern Blot. GAPDH expression was analyzed to indicate total RNA loading in each lane.\n(§5) In order to determine the dose response of HDAC7 antisense inhibitors to reduce HDAC7 message at the mRNA level, Human A549 cells were treated with 25 or 50 nM of antisense (AS1 and AS2) oligos directed against human HDAC-7 or the corresponding mismatch of AS1 (MM1) oligo or an universal mismatch (UMM) for 24 hours. […] The time dependence of HDAC7 antisense inhibitors on blocking HDAC7 gene expression at the mRNA level was analyzed by treating A549 cells with 50 nM AS1 or MM1 oligos. […] Similarly, A549 cells were treated with 25 nM or 50 nM of AS1 or AS2 oligos directed against human HDAC-8 or its MM oligo for AS2 (MM2) for 24 hours. AS-2 oligo against human HDAC8 at 50 nM was also used to treat A549 cells for 24 or 48 hours.\nas §1\n(§6) Cells were harvested, and total RNAs were analyzed by Northern blot analysis. Briefly, total RNA was extracted using RNeasy miniprep columns (QIAGEN Canada, Mississauga, Ontario). Ten to twenty […] of total RNA was run on a formaldehyde-containing 1% agarose gel with 0.5 M sodium phosphate (pH 7.0) as the buffer system. RNAs were then transferred to nitrocellulose membranes and hybridized with the indicated radiolabeled DNA probes. Autoradiography was performed using conventional procedures."}, "human HDAC-7 protein": {"tested_on": "human HDAC-7 protein", "assay": "HDAC-7 protein expression in A549 cells, SDS-PAGE and antibody probing", "format": "cell-based", "settings": "25 or 50 nM, 48 hours (time course 24 or 48 hours)", "experimental": "In order to determine whether treatment with HDAC ODNs would inhibit HDAC protein expression, human A549 cancer cells were treated with 25 or 50 nM of paired antisense or its mismatch oligos directed against human HDAC-7 for 48 hours. ODN treatment conditions were as previously described.\nCells were lysed in buffer containing 1% Triton X-100, 0.5% sodium deoxycholate, 5 mM EDTA, 25 mM Tris-HCl, pH 7.5, plus protease inhibitors. Total protein was quantified by the protein assay reagent from Bio-Rad (Hercules, Calif.). 100 ug of total protein was analyzed by SDS-PAGE. Next, total protein was transferred onto a PVDF membrane and probed with HDAC-7-specific primary antibodies."}, "p21 protein": {"tested_on": "p21 protein", "assay": "p21 protein expression in A549 cells", "format": "cell-based, human"}, "human HDAC-8 mRNA": {"tested_on": "human HDAC-8 mRNA", "assay": "HDAC-8 mRNA expression in A549 cells, Northern blot", "format": "cell-based", "settings": "24 hours", "experimental": "as §4, with “antisense oligodeoxynucleotides” for “antisense oligodeoxynucleotide”, “inhibiting HDAC-8” for “inhibiting HDAC-7”, “cells, fourteen” for “cells, eighteen”, “No. AF230097)” for “No. AF239243)”, “and HDAC-8” for “and HDAC-7”\nas §5, §1, §6"}, "HDAC-1": {"target": "HDAC-1 (Homo sapiens, UniProt Q13547)", "sequence (Q13547 whole entry)": "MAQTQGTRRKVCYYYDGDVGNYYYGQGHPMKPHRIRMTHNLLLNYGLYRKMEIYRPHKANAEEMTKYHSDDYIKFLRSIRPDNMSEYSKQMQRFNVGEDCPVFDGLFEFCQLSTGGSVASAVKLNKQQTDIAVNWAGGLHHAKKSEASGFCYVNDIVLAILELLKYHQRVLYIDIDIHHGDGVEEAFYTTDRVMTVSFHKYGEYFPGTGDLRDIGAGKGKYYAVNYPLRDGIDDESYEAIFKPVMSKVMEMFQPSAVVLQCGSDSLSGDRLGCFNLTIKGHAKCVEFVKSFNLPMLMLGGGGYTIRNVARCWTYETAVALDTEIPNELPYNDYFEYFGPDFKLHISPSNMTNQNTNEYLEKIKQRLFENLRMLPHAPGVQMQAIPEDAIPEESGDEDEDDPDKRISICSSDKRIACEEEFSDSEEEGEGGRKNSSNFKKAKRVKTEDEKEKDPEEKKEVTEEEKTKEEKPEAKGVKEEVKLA", "assay": "Enzyme inhibitory activity, HD1", "format": "biochemical", "settings": "read-out: IC50 HD 1"}, "HDAC-4": {"target": "HDAC-4 (Homo sapiens, UniProt P56524)", "sequence (P56524 whole entry)": "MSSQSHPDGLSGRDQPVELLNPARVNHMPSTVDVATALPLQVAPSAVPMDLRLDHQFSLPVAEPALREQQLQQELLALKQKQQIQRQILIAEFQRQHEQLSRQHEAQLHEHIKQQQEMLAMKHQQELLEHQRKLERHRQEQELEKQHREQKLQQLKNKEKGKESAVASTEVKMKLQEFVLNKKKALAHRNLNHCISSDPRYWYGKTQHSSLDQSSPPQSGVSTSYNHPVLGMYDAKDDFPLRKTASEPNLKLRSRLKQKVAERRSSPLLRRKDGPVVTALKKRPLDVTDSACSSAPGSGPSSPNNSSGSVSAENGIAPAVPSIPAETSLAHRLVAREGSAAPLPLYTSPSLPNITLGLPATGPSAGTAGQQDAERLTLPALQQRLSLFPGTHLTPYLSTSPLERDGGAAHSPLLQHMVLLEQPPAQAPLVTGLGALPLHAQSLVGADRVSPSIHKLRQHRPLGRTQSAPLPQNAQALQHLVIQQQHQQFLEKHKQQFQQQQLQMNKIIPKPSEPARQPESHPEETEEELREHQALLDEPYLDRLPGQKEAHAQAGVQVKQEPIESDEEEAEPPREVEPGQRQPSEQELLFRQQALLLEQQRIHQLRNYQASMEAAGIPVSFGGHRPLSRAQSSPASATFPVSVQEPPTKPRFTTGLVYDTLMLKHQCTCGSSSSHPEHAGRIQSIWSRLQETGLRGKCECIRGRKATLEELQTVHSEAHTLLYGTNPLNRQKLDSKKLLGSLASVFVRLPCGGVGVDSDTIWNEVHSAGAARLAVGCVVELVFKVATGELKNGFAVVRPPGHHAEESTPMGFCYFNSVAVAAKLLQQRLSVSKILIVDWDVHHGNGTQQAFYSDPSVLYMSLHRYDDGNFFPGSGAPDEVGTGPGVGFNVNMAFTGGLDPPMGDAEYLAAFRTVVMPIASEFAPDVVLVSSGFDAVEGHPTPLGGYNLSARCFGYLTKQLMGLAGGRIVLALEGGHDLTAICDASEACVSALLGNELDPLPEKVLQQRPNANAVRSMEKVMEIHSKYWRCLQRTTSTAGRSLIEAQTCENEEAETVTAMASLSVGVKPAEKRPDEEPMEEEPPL", "assay": "Enzyme inhibitory activity, HD4", "format": "biochemical"}, "HDAC-8": {"target": "T1, HDAC-8 (Homo sapiens, UniProt Q9BY41)", "T1 sequence (Q9BY41 1-377)": "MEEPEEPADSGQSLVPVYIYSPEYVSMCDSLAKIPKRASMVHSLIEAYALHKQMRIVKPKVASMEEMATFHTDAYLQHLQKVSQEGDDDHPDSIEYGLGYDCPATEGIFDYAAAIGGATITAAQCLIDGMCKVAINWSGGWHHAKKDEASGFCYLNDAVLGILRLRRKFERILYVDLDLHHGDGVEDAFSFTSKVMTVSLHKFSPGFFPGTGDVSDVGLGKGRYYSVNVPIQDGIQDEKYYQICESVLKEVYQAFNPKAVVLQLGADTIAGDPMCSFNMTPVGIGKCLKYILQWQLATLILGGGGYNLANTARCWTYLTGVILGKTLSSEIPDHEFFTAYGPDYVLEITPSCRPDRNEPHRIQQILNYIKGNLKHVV", "assay": "Enzyme inhibitory activity, HD8", "format": "biochemical", "settings": "read-out: IC50 HD 8"}, "[1]": {"tested_on": "colon cancer cells HCT116", "assay": "MTT assay, HCT116", "format": "cell-based, human", "settings": "72 hours; read-out: IC50 HCT 116 (MTT)", "experimental": "Effects of HDAC isotype-specific small molecule inhibitors on growth inhibition of various human cancer cells (from ATCC) in vitro were determined by MTT assays. Briefly, cells seeded in 96-well plates were incubated for 72 hours at 37° C. in a 5% CO2 incubator. MTT (Sigma) was added at a final concentration of 0.5 mg/ml and incubated with the cells for 4 hours before an equal volume of solubilization buffer (50% N,N-dimethylformamide, 20% SDS, pH 4.7) was added onto cultured cells. After overnight incubation, solubilized dye was quantified by colorimetric reading at […] using a reference at 630 nM. OD values were converted to cell numbers according to a standard growth curve of the relevant cell line. The concentration which reduces cell numbers to 50% of those of DMSO-treated cells is determined as MTT IC50. In Table 4, IC50s of several HDAC7 or HDAC8 inhibitors in MTT assays in various human cancer cell lines were listed. They include colon cancer cells HCT116 and SW48, lung cancer cells A549 and H446, breast cancer cells MCF-7 and MDAmb231, a prostate cancer cell line Du145 and a bladder cancer cell line T24."}},
  "note": "pIC50: −log10 of the molar value. “Also recorded” adds a separate entry of the source. d = 2'-deoxy (DNA); m = 2'-O-methyl",
  "data": [
    {"molecule": "5′-CAGGCTCACTTGACAAUGGC-3′ (sugars from the 5' end m4 d12 m4, all phosphorothioate, methylation of C not given here) [HD7 AS1, antisense oligo, Human HDAC7 5′-UTR]", "values": [
      {"measurement": "Growth Inhibition A549", "setting": "A549 cells", "result": "+ (“+” means >35% inhibition of cell growth by antisense oligos (50 nM, 48 hour) compared to that of cells treated with lipofectin)"},
      {"measurement": "Growth Inhibition Du145", "setting": "Du145 cells", "result": "+ (“+” means >35% inhibition of cell growth by antisense oligos (50 nM, 48 hour) compared to that of cells treated with lipofectin)"},
      {"measurement": "HDAC-7 mRNA expression, time course (FIG. 3)", "setting": "human HDAC-7 mRNA; 50 nM", "result": "significantly block gene expression of human HDAC7 at the mRNA level by 24 hours"},
      {"measurement": "HDAC-7 RNA expression, initial screen", "setting": "human HDAC-7 mRNA", "result": "good antisense activities"},
      {"measurement": "HDAC-7 mRNA expression, dose response (FIG. 1)", "setting": "human HDAC-7 mRNA; listed as HDAC7 AS1", "result": "can inhibit human HDAC7 expression at the mRNA level; also recorded: inhibited in a dose-dependent manner"},
      {"measurement": "HDAC-7 protein expression (FIG. 2, FIG. 4)", "setting": "human HDAC-7 protein", "result": "inhibited"},
      {"measurement": "p21 protein expression (FIG. 2)", "setting": "p21 protein", "result": "induced"}
    ]},
    {"molecule": "5′-CGCUTTCCTTGTCATTGACA-3′ (sugars from the 5' end m4 d12 m4, all phosphorothioate, methylation of C not given here) [HD3 AS1, antisense oligo, Human HDAC3 3′-UTR]", "values": [
      {"measurement": "Growth Inhibition Du145", "setting": "Du145 cells", "result": "+ (“+” means >35% inhibition of cell growth by antisense oligos (50 nM, 48 hour) compared to that of cells treated with lipofectin)"}
    ]},
    {"molecule": "5′-CUCCGGCTCCTCCATCUUCC-3′ (sugars from the 5' end m4 d12 m4, all phosphorothioate, methylation of C not given here) [HDAC8 AS1, antisense oligo, Human HDAC8 5′-UTR]", "values": [
      {"measurement": "HDAC-8 mRNA expression, dose response (FIG. 5)", "setting": "human HDAC-8 mRNA; 25 nM or 50 nM", "result": "inhibited in a dose-dependent manner"},
      {"measurement": "HDAC-8 RNA expression, initial screen", "setting": "human HDAC-8 mRNA; 100 nM", "result": "good antisense activities"}
    ]},
    {"molecule": "5′-CUUCAGCCAGGATGCCCACA-3′ (sugars from the 5' end m4 d12 m4, all phosphorothioate, methylation of C not given here) [HDAC7 AS2, antisense oligo, Human HDAC7 3′-UTR]", "values": [
      {"measurement": "HDAC-7 RNA expression, initial screen", "setting": "human HDAC-7 mRNA", "result": "good antisense activities"},
      {"measurement": "HDAC-7 mRNA expression, dose response (FIG. 1)", "setting": "human HDAC-7 mRNA", "result": "can inhibit human HDAC7 expression at the mRNA level; also recorded: inhibited in a dose-dependent manner"},
      {"measurement": "HDAC-7 protein expression (FIG. 2, FIG. 4)", "setting": "human HDAC-7 protein", "result": "inhibited"},
      {"measurement": "p21 protein expression (FIG. 2)", "setting": "p21 protein", "result": "induced"}
    ]},
    {"molecule": "5′-GCAGCGGCGGCAGCACCUCC-3′ (sugars from the 5' end m4 d12 m4, all phosphorothioate, methylation of C not given here) [HD5 AS1, antisense oligo, Human HDAC5 5′-UTR]", "values": [
      {"measurement": "Growth Inhibition Du145", "setting": "Du145 cells", "result": "+ (“+” means >35% inhibition of cell growth by antisense oligos (50 nM, 48 hour) compared to that of cells treated with lipofectin)"}
    ]},
    {"molecule": "CC(C=CC(=O)NO)=CC(C)Cc1ccc(N(C)C)cc1", "note": "(stereo not shown) [Compound 4, N-Hydroxy-4,6-dimethyl-7-[(4-N,N-dimethylaminophenyl)]-2,4-heptadienamide]", "values": [
      {"measurement": "pIC50", "setting": "HDAC-1", "result": 5.70},
      {"measurement": "pIC50", "setting": "HDAC-4", "result": "< 5.00"},
      {"measurement": "pIC50", "setting": "HDAC-8", "result": 6.40},
      {"measurement": "pIC50", "setting": "[1]", "result": 5.22}
    ]}
  ]
}
